From patent US20220380309A1, “CHOLINE METABOLISM INHIBITORS” (President and Fellows of Harvard College, priority 2018, published 2022)
Read-outs that look alike come from different tables or passages of the source. One block for each compound: values may come before it.

Experiments:
E. coli MS 200-1 = assay: Inhibition of TMA production in whole cells (LC-MS/MS assay for choline TMA-lyase activity, d9-TMA from d9-choline); type: cell-based
CutC = CutC (Oleidesulfovibrio alaskensis, UniProt Q30W70); assay: biochemical; type: biochemical
E. coli MS69-1 = assay: Choline TMA-lyase activity (TMA generation) in cut gene cluster-harboring bacteria; type: cell-based, Escherichia coli; conditions: 1 mM choline-d9, 3.5 hours, 37° C., read-out: EC50 against E. coli MS69-1
P. mirabilis ATCC 29906 = assay: as above; type: cell-based, Proteus mirabilis; conditions: 1 mM choline-d9, 3.5 hours, 37° C., read-out: EC50 against P. mirabilis ATCC 29906
Klebsiella sp. MS92-3 = assay: as above; type: cell-based; conditions: 1 mM choline-d9, 3.5 hours, 37° C., read-out: EC50 against Klebsiella sp. MS92-3
fecal sample = assay: Choline TMA-lyase activity in a fecal suspension ex vivo; type: cell-based; conditions: TMA generation, fecal sample 1:10 in Mega media, 1 mM choline-d9, 18 h, 37° C.; read-out: EC50 against fecal sample
[1] = Escherichia coli, MS2001, Table 2, inhibition of TMA-d9 production, 1 mM choline-d9, anaerobic, 3.5 hrs, 37° C., read-out: EC50
[2] = Escherichia coli, MS2001, Table 3, TMA generation, 1 mM choline-d9, anaerobic, 3.5 h, 37° C., read-out: EC50 against E. coli MS200-1
[3] = Table 3, TMA generation, 1 mM choline-d9, anaerobic, 3.5 h, 37° C., read-out: EC50 against E. coli MS200-1
[4] = Escherichia coli, MS2001, 3.5 h, read-out: EC50 against E. coli MS200-1

CutC, sequence (Q30W70 whole entry): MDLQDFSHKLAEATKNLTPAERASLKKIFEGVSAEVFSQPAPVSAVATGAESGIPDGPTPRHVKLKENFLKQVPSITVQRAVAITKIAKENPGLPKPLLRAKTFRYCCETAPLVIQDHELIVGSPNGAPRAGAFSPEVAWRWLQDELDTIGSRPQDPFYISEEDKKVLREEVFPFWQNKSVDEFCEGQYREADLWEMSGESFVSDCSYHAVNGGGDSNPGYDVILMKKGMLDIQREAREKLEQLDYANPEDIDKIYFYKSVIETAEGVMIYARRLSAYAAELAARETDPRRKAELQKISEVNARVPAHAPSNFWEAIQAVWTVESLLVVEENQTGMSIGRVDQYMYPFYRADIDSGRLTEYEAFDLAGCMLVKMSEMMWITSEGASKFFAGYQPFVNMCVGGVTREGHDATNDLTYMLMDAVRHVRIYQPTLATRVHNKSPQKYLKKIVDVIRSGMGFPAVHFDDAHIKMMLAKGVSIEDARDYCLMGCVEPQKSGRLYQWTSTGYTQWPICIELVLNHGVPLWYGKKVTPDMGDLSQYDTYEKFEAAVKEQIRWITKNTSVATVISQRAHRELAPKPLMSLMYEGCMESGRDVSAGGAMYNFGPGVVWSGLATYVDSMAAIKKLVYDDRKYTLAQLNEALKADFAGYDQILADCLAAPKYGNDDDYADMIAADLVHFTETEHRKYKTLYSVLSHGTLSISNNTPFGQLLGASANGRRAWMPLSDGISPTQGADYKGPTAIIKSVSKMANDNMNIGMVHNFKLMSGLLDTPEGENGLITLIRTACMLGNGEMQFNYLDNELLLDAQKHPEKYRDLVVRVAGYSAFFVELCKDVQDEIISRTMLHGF

- EC50 (E. coli MS 200-1; [1]): 2040 µM
Structure (SMILES): CN1CCC[C@@H]1CO [Compound 21]

Structure (SMILES): OC1C=CCOC1 (stereo not shown) [Compound 22]
- EC50 (E. coli MS 200-1; [1]): 25 µM

Structure (SMILES): CN1CCCC(O)CC1 (stereo not shown) [Compound 24]
- EC50 (E. coli MS 200-1; Escherichia coli, MS2001, 3.5 h): 760 µM

Structure (SMILES): C[N+]1(C)CC=CC(O)C1 (stereo not shown) [Compound 25]
- EC50 (E. coli MS 200-1; [1]): 10 µM

Structure (SMILES): CN1CCC(O)C1 (stereo not shown) [drawing 102]
- EC50 (E. coli MS 200-1; [2]): 6300 µM

- EC50 (E. coli MS 200-1; [3]): 27000 µM
Structure (SMILES): CN1CCCC(=O)C1 [drawing 107]

Structure (SMILES): CN1CCC(O)CC1 [drawing 108]
- EC50 (E. coli MS 200-1; [2]): 4470 µM

Structure (SMILES): CN1CCCC(O)CC1 (stereo not shown) [drawing 109]
- EC50 (E. coli MS 200-1; [4]): 762 µM

- EC50 (E. coli MS 200-1; [3]): 10 µM
Structure (SMILES): CN1CC=CC(O)C1 (stereo not shown) [drawing 110]

- EC50 (E. coli MS 200-1; [3]): 10 µM
Structure (SMILES): CN1CC=C[C@H](O)C1 [drawing 112]

- EC50 (E. coli MS 200-1; [3]): 31 µM
Structure (SMILES): CN1CC=C[C@@H](O)C1 [drawing 113]

Structure (SMILES): C[N+]1(C)CC=CC(O)C1 (stereo not shown) [drawing 114]
- EC50 (E. coli MS 200-1; [2]): 8 µM

Structure (SMILES): CC1=CC(O)CN(C)C1 (stereo not shown) [drawing 117]
- EC50 (E. coli MS 200-1; [2]): 923 µM

Structure (SMILES): CCCN1CC=CC(O)C1 (stereo not shown) [drawing 118]
- EC50 (E. coli MS 200-1; [2]): 196 µM

Structure (SMILES): OC1C=CCN(CC2CC2)C1 (stereo not shown) [drawing 120]
- EC50 (E. coli MS 200-1; [2]): 252 µM

Structure (SMILES): OC1C=CCN(CC2CCCCC2)C1 (stereo not shown) [drawing 123]
- EC50 (E. coli MS 200-1; [2]): 91 µM

Structure (SMILES): OC1C=CCN(Cc2ccccc2)C1 (stereo not shown) [drawing 124]
- EC50 (E. coli MS 200-1; [2]): 367 µM

Structure (SMILES): CC(C)N1CC=CC(O)C1 (stereo not shown) [drawing 136]
- inhibition at 3000 µM (E. coli MS 200-1; Escherichia coli, MS2001, Table 3, TMA generation of E. coli MS200-1, 3 mM compound): 83%

Structure (SMILES): OC1C=CCN(C2CCC2)C1 (stereo not shown) [drawing 137]
- EC50 (E. coli MS 200-1; [2]): 192 µM

Structure (SMILES): OC1C=CCN(C2CCCC2)C1 (stereo not shown) [drawing 140]
- EC50 (E. coli MS 200-1; [2]): 42 µM

Structure (SMILES): CC1CCCC1N1CC=CC(O)C1 (stereo not shown) [drawing 143]
- EC50 (E. coli MS 200-1; [4]): 15 µM

Structure (SMILES): CC1CCCC1N1CC=C[C@H](O)C1 (stereo partly shown) [drawing 144]
- EC50 (E. coli MS 200-1; [4]): 9 µM

Structure (SMILES): CC1CCCC1N1CC=C[C@@H](O)C1 (stereo partly shown) [drawing 145]
- EC50 (E. coli MS 200-1; [4]): 164 µM

Structure (SMILES): OC1C=CCN(C2CCCCC2)C1 (stereo not shown) [drawing 150]
- EC50 (E. coli MS 200-1; [2]): 22 µM

Structure (SMILES): O[C@H]1C=CCN(C2CCCCC2)C1 [drawing 151]
- EC50 (E. coli MS 200-1; [2]): 14 µM

Structure (SMILES): O[C@@H]1C=CCN(C2CCCCC2)C1 [drawing 152]
- EC50 (E. coli MS 200-1; [2]): 108 µM

Structure (SMILES): CC1CCCCC1N1CC=CC(O)C1 (stereo not shown) [drawing 153]
- EC50 (E. coli MS 200-1; [2]): 2 µM

Structure (SMILES): CC1CCCCC1N1CC=C[C@H](O)C1 (stereo partly shown) [drawing 154]
- EC50 (E. coli MS 200-1; [2]): 12 µM

Structure (SMILES): CC1CCCCC1N1CC=C[C@@H](O)C1 (stereo partly shown) [drawing 155]
- EC50 (E. coli MS 200-1; [2]): 68 µM

Structure (SMILES): OC1C=CCN(C2CCCCCC2)C1 (stereo not shown) [drawing 160]
- EC50 (E. coli MS 200-1; [2]): 24 µM

Structure (SMILES): OC1C=CCCC1 (stereo not shown) [drawing 162]
- EC50 (E. coli MS 200-1; [4]): 259 µM

Structure (SMILES): OC1C=CCOC1 (stereo not shown) [drawing 167]
- EC50 (E. coli MS 200-1; [2]): 80 µM

Structure (SMILES): CN1CCCC1CO (stereo not shown) [drawing 170]
- EC50 (E. coli MS 200-1; [2]): 298 µM

- EC50 (E. coli MS 200-1; [2]): 185 µM
Structure (SMILES): CN1CCC[C@H]1CO [drawing 171]

- EC50 (E. coli MS 200-1; [2]): 1820 µM
Structure (SMILES): CN1CCC[C@@H]1CO [drawing 172]

Structure (SMILES): C=CC(O)CN(C)C (stereo not shown) [drawing 174]
- EC50 (E. coli MS 200-1; [2]): 70 µM

Structure (SMILES): CN1CCC(O)C1 (stereo not shown) [drawing 176]
- IC50 (CutC; read-out: IC50 CutC): 844 µM

Structure (SMILES): CN1CCC(O)CC1 [drawing 179]
- IC50 (CutC; read-out: IC50 CutC): 7010 µM

Structure (SMILES): CN1CCCC(O)CC1 (stereo not shown) [drawing 180]
- IC50 (CutC; read-out: IC50 CutC): 2600 µM

Structure (SMILES): C[N+]1(C)CC=CC(O)C1 (stereo not shown) [drawing 185]
- IC50 (CutC; read-out: IC50 CutC): 7 µM

Structure (SMILES): CC1=CC(O)CN(C)C1 (stereo not shown) [drawing 186]
- IC50 (CutC; read-out: IC50 CutC): 422 µM

Structure (SMILES): CCCN1CC=CC(O)C1 (stereo not shown) [drawing 187]
- IC50 (CutC; read-out: IC50 CutC): 141 µM

Structure (SMILES): OC1C=CCN(CC2CC2)C1 (stereo not shown) [drawing 188]
- IC50 (CutC): 76 µM

Structure (SMILES): OC1C=CCN(CC2CCCCC2)C1 (stereo not shown) [drawing 189]
- IC50 (CutC): 24 µM

Structure (SMILES): OC1C=CCN(Cc2ccccc2)C1 (stereo not shown) [drawing 190]
- IC50 (CutC; read-out: IC50 CutC): 100 µM

Structure (SMILES): CC(C)N1CC=CC(O)C1 (stereo not shown) [drawing 191]
- IC50 (CutC): 110 µM

Structure (SMILES): OC1C=CCN(C2CCC2)C1 (stereo not shown) [drawing 192]
- IC50 (CutC): 203 µM

Structure (SMILES): CC1CCCC1N1CC=CC(O)C1 (stereo not shown) [drawing 193]
- inhibition at 10 μM (CutC): No inhibition at 10 μM

Structure (SMILES): CC1CCCC1N1CC=C[C@H](O)C1 (stereo partly shown) [drawing 194]
- inhibition at 10 μM (CutC): No inhibition at 10 μM

Structure (SMILES): CC1CCCC1N1CC=C[C@@H](O)C1 (stereo partly shown) [drawing 195]
- inhibition at 10 μM (CutC): No inhibition at 10 μM

Structure (SMILES): OC1C=CCN(C2CCCCC2)C1 (stereo not shown) [drawing 196]
- IC50 (CutC): 63 µM

Structure (SMILES): OC1C=CCN(C2CCCCCC2)C1 (stereo not shown) [drawing 197]
- IC50 (CutC): 14 µM

Structure (SMILES): OC1C=CCCC1 (stereo not shown) [drawing 198]
- IC50 (CutC; read-out: IC50 CutC): 709 µM

Structure (SMILES): OC1C=CCOC1 (stereo not shown) [drawing 199]
- IC50 (CutC; read-out: IC50 CutC): 2890 µM

Structure (SMILES): CN1CCCC1CO (stereo not shown) [drawing 200]
- IC50 (CutC): 513 µM

Structure (SMILES): C=CC(O)CN(C)C (stereo not shown) [drawing 201]
- IC50 (CutC): 23 µM

- EC50 (E. coli MS69-1): 27 µM
- EC50 (P. mirabilis ATCC 29906): 97 µM
- EC50 (Klebsiella sp. MS92-3): 5 µM
- EC50 (fecal sample): 78 µM
Structure (SMILES): CN1CC=CC(O)C1 (stereo not shown) [drawing 203]

- EC50 (E. coli MS69-1): 22 µM
- EC50 (P. mirabilis ATCC 29906): 92 µM
- EC50 (Klebsiella sp. MS92-3): 4 µM
- EC50 (fecal sample): 60 µM
Structure (SMILES): CN1CC=C[C@H](O)C1 [drawing 204]

- EC50 (E. coli MS69-1): 64 µM
- EC50 (P. mirabilis ATCC 29906): 366 µM
- EC50 (Klebsiella sp. MS92-3): 17 µM
Structure (SMILES): CN1CC=C[C@@H](O)C1 [drawing 205]
